The test system of experiment [1] is MV4-11 (expressing FLT3/ITD mutant gene). Kind of experiment: Cell proliferation, Cell Titer-Glo, MV4-11. To be noted: Homo sapiens, MV4-11; incubated for 72 hours; read-out: MV4-11 IC50. In kind it is cell-based. As for the experimental part:
(§1) The above cell lines were constructed by our laboratory.
(§2) The number of viable cells was determined by quantification of ATP in living cells using the Cell Titer-Glo® (Promega, USA) chemiluminescence cell viability assay kit.
For orientation: ATP-based viability assays read luminescence as a measure of living cells.

For experiment [2], the system named is MOLM-13 (expressing FLT3/ITD mutant gene and wild-type FLT3 gene). In words: Cell proliferation, Cell Titer-Glo, MOLM-13. In kind it is cell-based. To be noted: Homo sapiens, MOLM-13; incubated for 72 hours; read-out: MOLM-13 IC50. As for the experimental part: as §1, §2
Experiment [3] deals with MOLM-14 (expressing FLT3/ITD mutant gene and wild-type FLT3 gene). Kind of experiment: Cell proliferation, Cell Titer-Glo, MOLM-14. In kind it is cell-based. As to conditions: Homo sapiens, MOLM-14; incubated for 72 hours; read-out: MOLM-14 IC50. As for the experimental part:
as §1, §2

The test system of experiment [4] is TEL-BaF3-FLT3/ITD (stably expressing FLT3/ITD mutant activated kinase). Kind of experiment: Cell proliferation, Cell Titer-Glo, TEL-BaF3-FLT3/ITD. In kind it is cell-based, mouse. As to conditions: incubated for 72 hours, read-out: TEL-BaF3-FLT3/ITD IC50. As for the experimental part: as §1, §2
Experiment [5] concerns TEL-BaF3-FLT3-D835Y (stably expressing FLT3 D835Y mutant activated kinase). In words: Cell proliferation, Cell Titer-Glo, TEL-BaF3-FLT3-D835Y. In kind it is cell-based. As to conditions: Mus musculus; incubated for 72 hours; read-out: TEL-BaF3-FLT3-D835Y IC50. As for the experimental part:
as §1, §2

The next experiment concerns pro-B cell BaF3. Kind of experiment: Cell proliferation, Cell Titer-Glo, BaF3. In kind it is cell-based. To be noted: Mus musculus, incubated for 72 hours. As to the method: as §1, §2
In experiment [6] the test system is U937 (expressing wild-type FLT3 gene). In words: Cell proliferation, Cell Titer-Glo, U937. In kind it is cell-based, human. As to conditions: incubated for 72 hours, read-out: U937 IC50. As for the experimental part:
as §1, §2

Experiment [7] relates to TEL-BaF3-BMX (stably expressing BMX kinase). Kind of experiment: Cell proliferation, Cell Titer-Glo, TEL-BaF3-BMX. In kind it is cell-based. As to conditions: Mus musculus; incubated for 72 hours. As for the experimental part:
as §1, §2

Experiment [8] deals with TEL-cKIT-BaF3 (stably expressing cKIT kinase). In words: Cell proliferation, Cell Titer-Glo, TEL-cKIT-BaF3. In kind it is cell-based. As to conditions: Mus musculus; incubated for 72 hours. As for the experimental part: as §1, §2
In experiment [9] the test system is TEL-BaF3-EGFR (stably expressing EGFR kinase). Kind of experiment: Cell proliferation, Cell Titer-Glo, TEL-BaF3-EGFR. In kind it is cell-based. As to conditions: Mus musculus; incubated for 72 hours. As to the method:
as §1, §2

The test system of experiment [10] is TEL-BaF3-BLK (stably expressing BLK kinase). In words: Cell proliferation, Cell Titer-Glo, TEL-BaF3-BLK. In kind it is cell-based. To be noted: Mus musculus; incubated for 72 hours. As to the method: as §1, §2
Experiment [11] relates to TEL-JAK1-BaF3 (stably expressing JAK1 kinase). In words: Cell proliferation, Cell Titer-Glo, TEL-JAK1-BaF3. To be noted: Mus musculus; incubated for 72 hours. In kind it is cell-based. As for the experimental part:
as §1, §2

For another experiment, the target named is BTK protein kinase (Homo sapiens (Human), UniProt Q06187). Kind of experiment: In vitro inhibition activity (enzymatic activity), ADP-Glo, BTK. As to conditions: ATP 10 μM. In kind it is biochemical. In general terms: ADP-Glo turns the ADP formed in a reaction into a luminescent signal.
Chain of BTK protein kinase (Q06187 whole entry): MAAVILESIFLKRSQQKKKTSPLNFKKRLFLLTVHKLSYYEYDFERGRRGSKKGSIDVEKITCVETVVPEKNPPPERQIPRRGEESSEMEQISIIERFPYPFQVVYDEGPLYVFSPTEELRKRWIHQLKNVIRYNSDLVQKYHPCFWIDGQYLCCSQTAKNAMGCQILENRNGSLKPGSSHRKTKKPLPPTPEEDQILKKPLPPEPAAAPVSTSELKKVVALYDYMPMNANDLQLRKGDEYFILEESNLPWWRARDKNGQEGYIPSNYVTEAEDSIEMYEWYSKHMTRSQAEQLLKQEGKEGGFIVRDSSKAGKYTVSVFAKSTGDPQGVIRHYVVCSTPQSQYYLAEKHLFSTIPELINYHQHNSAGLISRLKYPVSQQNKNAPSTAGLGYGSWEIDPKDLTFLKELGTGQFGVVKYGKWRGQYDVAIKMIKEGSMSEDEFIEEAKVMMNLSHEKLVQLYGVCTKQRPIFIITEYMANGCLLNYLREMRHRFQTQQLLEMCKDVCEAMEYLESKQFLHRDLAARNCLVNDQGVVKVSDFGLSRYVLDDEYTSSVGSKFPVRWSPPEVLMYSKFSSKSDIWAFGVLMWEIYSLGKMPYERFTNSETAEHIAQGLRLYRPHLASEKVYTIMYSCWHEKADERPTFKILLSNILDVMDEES
Experiment [12] concerns TPR-MET-BaF3 (stably expressing MET kinase). In words: Cell proliferation, Cell Titer-Glo, TPR-MET-BaF3. In kind it is cell-based. To be noted: Mus musculus; incubated for 72 hours. As for the experimental part:
as §1, §2

Experiment [13] concerns OCI-AML-3 (expressing FLT3 A680V mutant gene). Kind of experiment: Cell proliferation, Cell Titer-Glo, OCI-AML3. In kind it is cell-based. As to conditions: Homo sapiens, incubated for 72 hours. As to the method:
as §1, §2

Experiment [14] relates to BaF3-FLT3-ITD-F691L (stably expressing FLT3/ITD F691L mutant activated kinase). Kind of experiment: Cell proliferation, Cell Titer-Glo, BaF3-FLT3-ITD-F691L. In kind it is cell-based. As to conditions: Mus musculus; incubated for 72 hours; read-out: BaF3-FLT3-ITD-F691L IC50. As for the experimental part: as §1, §2

Consider 13 compounds from patent US10266535B2, “Inhibitor of FLT3 kinase and use thereof” (HEFEI INSTITUTES OF PHYSICAL SCIENCE, CHINESE ACADEMY OF …, priority 2015, dated 2019).

Structures are written as SMILES. pIC50: −log10 of the molar value. Structures can show the parent of a compound that is named as a salt. Where two headings read alike, the source gives them in different places.

Take `Nc1ncnc2c1c(-c1ccc(Oc3ccccc3)cc1)nn2[C@@H]1CCCN(C(=O)[C@H](N)Cc2c[nH]c3ccccc23)C1` [Compound 8, (R)-2-amino-1-((R)-3-(4-amino-(4-phenoxyphenyl)-1H-pyrazolo[3,4-d]pyrimidin-1-yl)piperidin-1-yl)-3-(1H-indol-3-yl)propan-1-one]: the pIC50 is 6.57 in [1]; 6.74 in [2]; 6.51 in experiment [3]; 6.57 in experiment [4] (Mus musculus, 72 h); 7.05 in experiment [5]; 6.21 with pro-B cell BaF3. Also, the pIC50 is 6.00 in experiment [6] (Homo sapiens, U-937, 72 h); 6.26 in [7]; 6.12 in [8]; 5.85 in experiment [9]; 6.25 in experiment [10]; 6.57 in experiment [11]. Moreover, on BTK protein kinase, the pIC50 was 6.60.
Take `CN[C@H](CC(C)C)C(=O)NC1CCC(n2nc(-c3ccc(Oc4ccccc4)cc3)c3c(N)ncnc32)CC1` (stereo partly drawn) [Compound 92, (R)-N-(4-(4-amino-(4-phenoxyphenyl)-1H-pyrazolo[3,4-d]pyrimidin-1-yl)cyclohexyl)-4-methyl-2-(methylamino)pentanamide hydrochloride]: the pIC50 in experiment [1] was greater than 9.52; in experiment [3], greater than 9.52; in [4] (Mus musculus, 72 h) it was greater than 9.52; in [5], greater than 9.52; in the experiment with pro-B cell BaF3, 5.72.
As to `Nc1ncnc2c1c(-c1ccc(Oc3ccccc3)cc1)nn2[C@@H]1CCCN(C(=O)C(F)(F)F)C1` [Compound 2, (R)-1-(3-(4-amino-(4-phenoxyphenyl)-1H-pyrazolo[3,4-d]pyrimidin-1-yl)piperidin-1-yl)-2,2,2-trifluoroethanone], the pIC50 in [1] was 6.52; in [2], 6.54; in [3] it was 6.14; in experiment [4] (Mus musculus, 72 h) it was 6.92; in experiment [5], 6.89; in the experiment on pro-B cell BaF3, 5.70. Besides, the pIC50 in [6] (Homo sapiens, U-937, 72 h) is less than 5.00; in experiment [7] it was 7.09; in [8], 5.72; in experiment [12] it was 5.33; in [9], 5.21; in [10], 6.20. In [11], this compound had a pIC50 of 5.85.
For `N#CCC(=O)N1CCC[C@@H](n2nc(-c3ccc(Oc4ccccc4)cc3)c3c(N)ncnc32)C1` [Compound 20], the pIC50 is 6.70 in experiment [1]; 6.80 in [2]; 6.39 in experiment [3]; 6.92 in experiment [4] (Mus musculus, 72 h); 6.82 in [5]; less than 5.00 in the experiment with pro-B cell BaF3. Moreover, the pIC50 in experiment [6] (Homo sapiens, U-937, 72 h) is less than 5.00; in experiment [7], 7.33; in experiment [8], 5.48; in experiment [12], less than 5.00; in experiment [9], 5.33; in experiment [10], 6.28. Besides, in experiment [11], the pIC50 is less than 5.00.
With `C[C@@H](N)C(=O)N1CCC[C@@H](n2nc(-c3ccc(Oc4ccccc4)cc3)c3c(N)ncnc32)C1` [Compound 47], the pIC50 in experiment [1] is 7.27; in experiment [2] it was 7.47; in [3], 7.32; in experiment [4], 7.66; with pro-B cell BaF3, 5.42; in experiment [6] it was less than 5.00. The pIC50 was 5.57 in experiment [13]; 7.25 in experiment [7]; 5.61 in experiment [12]; 6.17 in [10]; 7.57 against BTK protein kinase.
As to `COC(=O)N1CCC(C(=O)N2CCC[C@@H](n3nc(-c4ccc(Oc5ccccc5)cc4)c4c(N)ncnc43)C2)CC1` [Compound 60, (R)-methyl 4-(3-(4-amino-(4-phenoxyphenyl)-1H-pyrazolo[3,4-d]pyrimidin-1-yl)piperidine-1-carbonyl)piperidin-1-carboxylate], the pIC50 in experiment [1] was 6.28; in [2] it was 5.87; in experiment [4] (Mus musculus, 72 h), 6.52; in the experiment on pro-B cell BaF3 it was 5.36; in [11], 6.11.
For the compound `CC(C)[C@@H](N)C(=O)N1CCC[C@@H](n2nc(-c3ccc(Oc4ccccc4)cc3)c3c(N)ncnc32)C1` (stereo in doubt) [Compound 45, (R)-2-amino-1-((R)-3-(4-amino-(4-phenoxyphenyl)-1H-pyrazolo[3,4-d]pyrimidin-1-yl)piperidin-1-yl)-3-methylbutanone], the pIC50 in [1] was 7.57; in [2] it was 7.60; in experiment [4] (Mus musculus, 72 h), 7.77; in experiment [14], 6.43; in the experiment with pro-B cell BaF3, 5.85; in experiment [6] (Homo sapiens, U-937, 72 h), less than 5.00. Moreover, the pIC50 in [13] is 5.38; in experiment [7], 7.04; in [12], 5.86; in experiment [10] it was 7.02; against BTK protein kinase, 6.59.
With `CN(C)CC(=O)N1CC[C@@H](n2nc(-c3ccc(Oc4ccccc4)cc3)c3c(N)ncnc32)C1` [Compound 65], the pIC50 in experiment [1] was 7.08; in [2], 6.64; in experiment [4] (Mus musculus, 72 h) it was 7.39; in the experiment with pro-B cell BaF3, 5.07; in experiment [7], 5.92; in experiment [8], 5.46. The pIC50 was 6.44 in experiment [10] and 6.05 in experiment [11].
As for `NCC(=O)N1CC[C@@H](n2nc(-c3ccc(Oc4ccccc4)cc3)c3c(N)ncnc32)C1` [Compound 64], the pIC50 in experiment [1] was 6.76; in [2] it was 6.32; in experiment [4] (Mus musculus, 72 h) it was 7.10; in the experiment on pro-B cell BaF3, 5.12; in experiment [7] it was 7.05; in experiment [8], 5.60. The pIC50 in [10] was 8.01; in [11] it was 5.89.
`NC(=O)CC[C@@H](N)C(=O)N1CCC[C@@H](n2nc(-c3ccc(Oc4ccccc4)cc3)c3c(N)ncnc32)C1` [Compound 57]: the pIC50 is 7.22 in [1]; 6.12 in experiment [2]; 6.92 in experiment [4] (Mus musculus, 72 h); 5.07 with pro-B cell BaF3; 5.64 in [7]; 5.47 in [8]. In addition, the pIC50 was 6.27 in [10] and 5.33 in experiment [11].
With `CC(C)C[C@@H](N)C(=O)N1CC[C@@H](n2nc(-c3ccc(Oc4ccccc4)cc3)c3c(N)ncnc32)C1` [Compound 28, (R)-2-amino-1-((R)-3-(4-amino-(4-phenoxyphenyl)-1H-pyrazolo[3,4-d]pyrimidin-1-yl)pyrrolidin-1-yl)-4-methylpentan-1-one], the pIC50 in [1] was 6.92; in experiment [2], 5.72; in experiment [4] (Mus musculus, 72 h) it was 7.39; in the experiment on pro-B cell BaF3, 5.67; in experiment [7] it was 6.41; in experiment [8], 5.28. For the same compound, the results for the pIC50 in experiment [10] and in experiment [11] were 7.08 and 6.04, respectively.
Regarding `Nc1ncnc2c1c(-c1ccc(Oc3ccccc3)cc1)nn2[C@@H]1CCCN(S(N)(=O)=O)C1` [Compound 4, (R)-3-(4-amino-(4-phenoxyphenyl)-1H-pyrazolo[3,4-d]pyrimidin-1-yl)piperidin-1-sulfonamide], the pIC50 in [1] was 6.52; in experiment [2] it was 6.64; in [3], 6.17; in [5] it was 6.80; in the experiment with pro-B cell BaF3 it was less than 5.00; in [7] it was 6.09. Moreover, the pIC50 in experiment [8] is 5.31; in experiment [12] it was less than 5.00; in [9], less than 5.00; in [10], 5.85; in experiment [11], less than 5.00.
For the compound `CC(C)C[C@H](N)C(=O)N1CCC[C@@H](n2nc(-c3ccc(Oc4ccccc4)cc3)c3c(N)ncnc32)C1` [Compound 12, (S)-2-amino-1-((R)-3-(4-amino-(4-phenoxyphenyl)-1H-pyrazolo[3,4-d]pyrimidin-1-yl)piperidin-1-yl)-4-methylpentan-1-one], the pIC50 in [1] was 7.19; in experiment [2], 7.34; in experiment [3] it was 7.11; in [4] (Mus musculus, 72 h), 7.35; in experiment [5], 7.32; in experiment [6] (Homo sapiens, U-937, 72 h) it was 5.80. The pIC50 in [7] was 6.22; in experiment [8], 6.00; in experiment [12], 5.82; in experiment [10], 6.02; in experiment [11] it was 6.28; against BTK protein kinase, 6.46.
